In brackets after ≈: the same amount, converted by molar mass.

System in one data set: not listed separately
The experiment in a line: Solubility test in water (HPLC, external standard method). Format: physicochemical. The settings on record: thermodynamic from solid. The protocol:
Experimental method: Refer to the high-performance liquid chromatography method (Chinese Pharmacopoeia, 2020 Edition, Part Four, General Rule 0512) for determination.
a. Take approximately 1-2 mg of the compound, and place it in a 10 ml volumetric flask. Add lml of water and vigorously shake for 30 seconds every 5 minutes. Observe for 30 minutes. The sample is not completely dissolved. Filter through a 0.45 μm filter membrane, and take the remaining filtrate as the test solution.
b. Take approximately amount of the reference substance, add solvent (DMSO: methanol=10:90) to dissolve and dilute it quantitatively to produce a solution containing 0.1 mg per 1 ml as the reference substance solution.
c. Accurately measure 20 μl of each of the reference substance and test solution, and inject them into the liquid chromatograph respectively. Calculate the peak area according to the external standard method. Calculation formula: […]
In the formula: AT: the main peak area of the test solution; AR: the main peak area of reference substance solution; WR: weighing amount of reference substance solution, mg; VR: dilution volume of reference substance solution, ml; S: content of reference substance solution, %.
d. Chromatographic conditions: Using octadecylsilane bonded silica gel as the filling agent (Welch Ultimate XB-C18, 4.6×150 mm, suitable for 5 um columns). […]
By solubility is commonly meant how much of the substance goes into solution per volume. Low values mean a poorly soluble substance, high ones a readily soluble substance. For `N#C[C@@]1(c2ccc3c(N)ncnn23)O[C@H](CO)[C@@H](O)[C@H]1O` [GS-441524], the solubility at 30 min was 50 µg/mL (≈ 172 µM).

The next data set has as its system Feline Infectious Peritonitis Virus (FIPV). Briefly: In vitro anti feline infectious peritonitis virus (FIPV) activity in CRFK cells. The class given is cell-based. The settings on record: Alphacoronavirus 1, 0.1 MOI FIPV, 72 hours, CellTier-Glo cell viability. Here is the method: Well-growing CRFK cells were inoculated on a 96-well plate. When the cells grow to 80%-90% confluence, 0.1 MOI Feline Infectious Peritonitis Virus (FIPV) and different concentrations of test compounds (0.3125 μM, 0.625 μM, 1.25 μM, 2.5 μM, 5 μM, 10 μM, 20 μM, and 40 μM) were added to each well. Simultaneously set up cell control and virus control with 1% DMSO each well. After being incubated at 37° C. for 72 hours, the cells were treated with CellTier-Glo luminescence assay cell viability detection reagents (Promega, Madison, WI, USA), and the half effective concentration (EC50) of the compounds against virus inhibition was calculated by GraphPad prism 7 software.
As usually defined, the EC50 is the midpoint of the concentration-response curve. Read a high EC50 as a less potent agent. Turning to `CC(C)C(=O)OC[C@H]1O[C@@](C#N)(c2ccc3c(N)ncnn23)[C@H](O)[C@@H]1O` [Compound 4], the EC50 amounted to 650 nM.
Turning to `N#C[C@@]1(c2ccc3c(N)ncnn23)O[C@H](COC(=O)CC(F)(F)F)[C@@H](O)[C@H]1O` [Compound 14], the midpoint of the response, the EC50, lay at 2950 nM.
Take `N#C[C@@]1(c2ccc3c(N)ncnn23)O[C@H](COC(=O)C2CCC2)[C@@H](O)[C@H]1O` [Compound 16]: it took 810 nM to reach a half-maximal effect (EC50).
Still for that read-out and setting: for `N#C[C@@]1(c2ccc3c(N)ncnn23)O[C@H](COC(=O)C2CCCCC2)[C@@H](O)[C@H]1O` [Compound 18] the value was 350 nM; for `N#C[C@@]1(c2ccc3c(N)ncnn23)O[C@H](COC(=O)CO)[C@@H](O)[C@H]1O` [Compound 32], 6210 nM.

Another data set has as its system feline infectious peritonitis. Briefly: Pharmacodynamic experiment on feline infectious peritonitis (subcutaneous aqueous injection). The class given is in vivo. Conditions: cats with feline infectious peritonitis, 2 mg/kg once a day subcutaneous aqueous injection, two weeks, FIG. 1. Here is the method: 15 mg of compounds 1, 32, and 85 was dissolved separately in 5 mL of solution (water:propylene glycol:PEG=2:1:1) to prepare an injection solution for injection administration. The injection can be stored at room temperature. Use a 2 mL disposable veterinary syringe to draw the corresponding volume of the injection solution and expel air upwards. When injecting, choose a site with soft skin, loose subcutaneous tissue, and fewer blood vessels, such as the neck or medial thigh, for subcutaneous injection. The dosage of administration is 2 mg/kg body weight once a day. Blood samples are collected every three days and blood routine and corresponding biochemical indicators are measured. The end of the experiment is marked when the cat's biochemical indicators return to normal. The indicator data measured in the experiment includes body weight data, erythrocyte data, and data of the ratio of Albumin to Globulin. The experimental subjects for each compound are 15 cats diagnosed with feline infectious peritonitis.
For the compound `CC(=O)OC[C@H]1O[C@@](C#N)(c2ccc3c(N)ncnn23)[C@H](O)[C@@H]1O` [Compound 1], the “weight changes of cats before and after treatment” value is “significantly raised”.
Same read-out and setting: in the case of `N#C[C@@]1(c2ccc3c(N)ncnn23)O[C@H](COC(=O)CO)[C@@H](O)[C@H]1O` [Compound 32] it was “significantly raised”; in that of `CN(C)CCN(C)C(=O)OC[C@H]1O[C@@](C#N)(c2ccc3c(N)ncnn23)[C@H](O)[C@@H]1O` [Compound 85], “significantly raised”.

The data set is the same for the next values; noted with them: cats with feline infectious peritonitis, 2 mg/kg once a day subcutaneous aqueous injection, two weeks, FIG. 2.
For `CC(=O)OC[C@H]1O[C@@](C#N)(c2ccc3c(N)ncnn23)[C@H](O)[C@@H]1O` [Compound 1], the number of erythrocytes entry is recorded as “significantly increased”.
Take `N#C[C@@]1(c2ccc3c(N)ncnn23)O[C@H](COC(=O)CO)[C@@H](O)[C@H]1O` [Compound 32]: the number of erythrocytes result is on record as “significantly increased”.
Same read-out and setting: for `CN(C)CCN(C)C(=O)OC[C@H]1O[C@@](C#N)(c2ccc3c(N)ncnn23)[C@H](O)[C@@H]1O` [Compound 85] the value was “significantly increased”.

Staying with this data set, now noted: cats with feline infectious peritonitis, 2 mg/kg once a day subcutaneous aqueous injection, two weeks, FIG. 3.
In the case of `CC(=O)OC[C@H]1O[C@@](C#N)(c2ccc3c(N)ncnn23)[C@H](O)[C@@H]1O` [Compound 1], the “ratio of Albumin to Globulin (A/G)” value is given as “reached normal values”.
The same measure, in the same setting: for `N#C[C@@]1(c2ccc3c(N)ncnn23)O[C@H](COC(=O)CO)[C@@H](O)[C@H]1O` [Compound 32] the value was “reached normal values”.
Same read-out and setting: in the case of `CN(C)CCN(C)C(=O)OC[C@H]1O[C@@](C#N)(c2ccc3c(N)ncnn23)[C@H](O)[C@@H]1O` [Compound 85] it was “reached normal values”.

For the origin of these results see patent US20240226127A1, “NUCLEOSIDE COMPOUND AND APPLICATION THEREOF IN THE TREATMENT OF FELINE INFECTIOUS PERITONITIS” (VIGONVITA LIFE SCIENCES CO., LTD., priority 2021, published 2024).
